According to ChEMBL document CHEMBL2146458, “Tanshinones as selective and slow-binding inhibitors for SARS-CoV cysteine proteases” (Bioorg Med Chem, 2012):
Active and inactive are the calls of the source. The rule behind the calls is not given here.

Assays:
[1] = target: Replicase polyprotein 1a (Severe acute respiratory syndrome-related coronavirus) (UniProt P0C6U8); settings: 200 uM
Replicase polyprotein 1a [2] = target: T1, Replicase polyprotein 1a (Severe acute respiratory syndrome-related coronavirus, UniProt P0C6U8); settings: read-out: Ki(app)
Replicase polyprotein 1a [3] = target: T1, Replicase polyprotein 1a
Papain = target: T2, Papain (Carica papaya, UniProt P00784); test: Inhibition of papaya papain using N-alpha-benzoyl-L-arginine-pnitroanilide as substrate after 5 mins
T2 sequence (P00784 whole entry): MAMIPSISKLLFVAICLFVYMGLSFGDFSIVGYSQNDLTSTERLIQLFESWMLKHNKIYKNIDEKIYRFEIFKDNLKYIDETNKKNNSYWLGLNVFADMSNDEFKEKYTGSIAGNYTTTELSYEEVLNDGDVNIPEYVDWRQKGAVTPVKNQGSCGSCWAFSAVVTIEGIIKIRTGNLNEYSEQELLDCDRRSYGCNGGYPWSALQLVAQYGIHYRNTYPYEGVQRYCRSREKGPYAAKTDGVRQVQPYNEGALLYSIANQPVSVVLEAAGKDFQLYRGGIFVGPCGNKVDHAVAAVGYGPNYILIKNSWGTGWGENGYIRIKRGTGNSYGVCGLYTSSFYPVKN

[4] = target: Replicase polyprotein 1a (Severe acute respiratory syndrome-related coronavirus) (UniProt P0C6U8)
Replicase polyprotein 1a [5] = target: T1, Replicase polyprotein 1a; remark: listed apart in the source
[6] = target: Replicase polyprotein 1a (Severe acute respiratory syndrome-related coronavirus) (UniProt P0C6U8); remark: listed apart in the source
Replicase polyprotein 1a [7] = target: T1, Replicase polyprotein 1a; remark: listed apart in the source
Protease = Protease (Human immunodeficiency virus 1, UniProt Q9YQ12); test: Inhibition of Human immunodeficiency virus 1 protease preincubated for 10 mins by FRET assay
Sequence of Protease (Q9YQ12 whole entry): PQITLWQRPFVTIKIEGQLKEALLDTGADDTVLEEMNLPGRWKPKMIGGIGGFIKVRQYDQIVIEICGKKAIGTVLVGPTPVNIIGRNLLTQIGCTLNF

[8] = target: Replicase polyprotein 1a (Severe acute respiratory syndrome-related coronavirus) (UniProt P0C6U8); remark: listed apart in the source
[9] = Inhibition of chymotrypsin using N-benzoyl-L-tyrosine ethyl ester as substrate assessed as benzoyl-tyrosine production measured every 10 seconds for 6 mins
[10] = target: Replicase polyprotein 1a (Severe acute respiratory syndrome-related coronavirus) (UniProt P0C6U8); settings: TDE = time-dependent effect
Replicase polyprotein 1a [11] = target: T1, Replicase polyprotein 1a; remark: listed apart in the source
[12] = target: Replicase polyprotein 1a (Severe acute respiratory syndrome-related coronavirus) (UniProt P0C6U8); remark: listed apart in the source
[13] = Inhibition of chymotrypsin using N-benzoyl-L-tyrosine ethyl ester as substrate assessed as benzoyl-tyrosine production at 200 uM measured every 10 seconds for 6 mins
[14] = target: Replicase polyprotein 1a (Severe acute respiratory syndrome-related coronavirus) (UniProt P0C6U8); remark: listed apart in the source
Papain (Carica papaya) = target: T3, Papain (Carica papaya) (UniProt P00784); test: Inhibition of papaya papain using N-alpha-benzoyl-L-arginine-pnitroanilide as substrate at 200 uM after 5 mins
T3 sequence (whole entry): T2 sequence (P00784 whole entry)

[15] = target: Replicase polyprotein 1a (Severe acute respiratory syndrome-related coronavirus) (UniProt P0C6U8); settings: 1 to 100 uM
[16] = target: Replicase polyprotein 1a (Severe acute respiratory syndrome-related coronavirus) (UniProt P0C6U8); settings: 200 uM; remark: listed apart in the source
[17] = target: Replicase polyprotein 1a (Severe acute respiratory syndrome-related coronavirus) (UniProt P0C6U8); remark: listed apart in the source
[18] = target: Protease (Human immunodeficiency virus 1) (UniProt Q9YQ12); test: Inhibition of Human immunodeficiency virus 1 protease at 200 uM preincubated for 10 mins by FRET assay
Sequence of Protease (Human immunodeficiency virus 1) (Q9YQ12 as listed by the source): as the sequence (Q9YQ12 whole entry) above

Row | SMILES | Ki (Replicase polyprotein 1a [2]) [µM] | IC50 (Replicase polyprotein 1a [3]) [µM] | IC50 (Papain) [µM] | inhibition [4] | IC50 (Replicase polyprotein 1a [5]) [µM] | IC50 (Replicase polyprotein 1a [7]) [µM] | IC50 (Protease) [µM] | inhibition [8] | IC50 [9] [µM] | inhibition [10] | IC50 (Replicase polyprotein 1a [11]) [µM] | inhibition [12] | inhibition [14] | inhibition (Papain (Carica papaya)) | inhibition [15] | other results
1 | O=C(/C=C/c1cc(O)cc2c1[C@H](C(O)O[C@H](Cc1ccc(O)c(O)c1)C(=O)O)[C@@H](c1ccc(O)c(O)c1)O2)O[C@H](Cc1ccc(O)c(O)c1)C(=O)O (some centres not stated) |  |  |  |  |  |  |  |  |  |  |  |  |  |  |  | inhibition [1]: 30%
2 | C[C@H]1COC2=C1C(=O)C(=O)c1c2ccc2c1CCCC2(C)C [CRYPTOTANSHINONE] | 9 | 227 | 89.8 | Active | 0.8 | 10.1 | 69.6 | Active | 120 | tde | 87.6 |  |  |  |  | inhibition [6]: Dose-dependent effect
3 | Cc1cccc2c3c(ccc12)C1=C(C(=O)C3=O)[C@@H](C)CO1 [DIHYDROTANSHINONE I] | 11.2 | 14.4 |  | Active | 4.9 | 10.7 | 50.6 | Active |  | tde | 1.2 | Dose-dependent effect | Active | inactive | inactive | inhibition [13]: inactive
4 | COC(=O)[C@@]1(C)CCCc2c1ccc1c2C(=O)C(=O)c2c(C)coc2-1 [METHYL TANSHINONATE] | 9.7 | 21.1 |  | Active | 9.2 | 10.6 | 103 | Active | 124 | tde |  | Dose-dependent effect | Active | inactive | inactive | inhibition [16]: inactive
5 | CC(C)C1=Cc2ccc3c(c2C(=O)C1=O)CCCC3(C)C [MILTIRONE] | 21.5 | 21.1 | 88 | Active | 30 | 78.9 | 148 |  | 139 | tde | 60.2 | Dose-dependent effect | Active |  | inactive | inhibition [17]: Active
6 | Cc1coc2c1C(=O)C(=O)c1c-2ccc2c1CCCC2(C)C [TANSHINONE IIA] | 11.2 | 89.1 | 122 | Active | 1.6 | 17.1 | 59.2 | Active | 68.3 | tde |  | Dose-dependent effect | Active |  | inactive | inhibition [16]: inactive
7 | Cc1coc2c1C(=O)C(=O)c1c-2ccc2c1CCCC2(C)CO (configuration not stated) [TANSHINONE IIB] | 21.6 | 24.8 |  | Active | 10.7 | 18 |  | Active |  | tde | 52 | Dose-dependent effect | Active | inactive | inactive | inhibition [13]: inactive; inhibition [18]: inactive
8 | Cc1coc2c1C(=O)C(=O)c1c-2ccc2c(C)cccc12 [TANSHINONE I] | 13.7 | 38.7 |  | Active | 8.8 | 11.5 | 45.9 | Active | 103 | tde | 0.7 | Dose-dependent effect | Active | inactive | inactive | 
